In one series the test system is hypoxemic model rats. Briefly: Determination of oxygen partial pressure increasing action (arterial blood PaO2 gain in hypoxemic model rats). The conditions noted are these: urethane-anesthetized rats, i.v. continuously 0.1 mg/kg/min, PaO2 measured 10 minutes after completion of administration, gain before vs after. Format: in vivo, Sprague-Dawley male rats. How it is done: Determination of oxygen partial pressure increasing action
Actions of the quinazoline derivatives of the present invention to increase oxygen partial pressure in the arterial blood were determined according to the following method:
Sprague-Dawley male rats having body weights of about 250 g were anesthetized (i.p.) with urethane and cannulated to the respiratory tracts, femoral arteries and femoral veins. An olive oil-charcoal powder suspension (10 mg/ml) was introduced in an amount of 0.8 ml/kg through the respiratory tract cannulae into the lungs to cause the rats to hypoxic state (PaO2≦75 mmHg). The quinazoline derivatives listed in Table 1 were intravenously administered to these hypoxemic model rats continuously at a rate of 0.1 mg/kg/min, and arterial blood oxygen partial pressure value (PaO2) of each rat was measured at the time point of 10 minutes after completion of administration using a blood gas analyzer (Ciba Corning 800 series). Gains (APaO2) were determined based on results of PaO2 measurement made before and after administration of the test compounds.
Actions of the thienopyrimidine derivatives of the present invention to increase oxygen partial pressure in the arterial blood were determined according to the following method:
Sprague-Dawley male rats having body weights of about 250 g were anesthetized (i.p.) with urethane and cannulated to the respiratory tracts, femoral arteries and femoral veins. An olive oil-charcoal powder suspension (10 mg/ml) was introduced in an amount of 0.8 ml/kg through the respiratory tract cannulae into the lungs to cause the rats to be under hypoxic state (PaO2 Δ 75 mmHg). The thienopyrimidine derivatives listed in Table 2 were intravenously administered to these hypoxemic model rats continuously at a rate of 0.1 mg/kg/min, and arterial blood oxygen partial pressure value (PaO2) of each rat was measured at the time point of 10 minutes after completion of administration using a blood gas analyzer (Ciba Corning 800 series). Gains (ΔPaO2) were determined based on results of PaO2 measurement made before and after administration of the test compounds.

The mark [1] stands for this setting: quinazoline derivatives, hypoxic state (PaO2≦75 mmHg) by olive oil-charcoal powder suspension.
[2] abbreviates: thienopyrimidine derivatives, hypoxic state (PaO2 Δ 75 mmHg) by olive oil-charcoal powder suspension.

Each structure is given as a SMILES string.

A word on the melting point: it is the temperature, or range, at which the solid turns liquid.

`C=CCNc1nc(NCc2ccccc2)nc2ccc([N+](=O)[O-])cc12` [Example 6, 4-Allylamino-2-benzylamino-6-nitroquinazoline] came in with a melting point of 216 to 217 °C. The molecule further showed a ΔPaO2 in the series with hypoxemic model rats (setting [1]) of 48 mmHg.

Turning to `C=CCNc1nc(NC2CCCCC2)nc2ccc([N+](=O)[O-])cc12` [Example 7, 4-Allylamino-2-cyclohexylamino-6-nitroquinazoline], the melting point lay in the range of 183 to 184 °C. Besides, in the series with hypoxemic model rats (setting [1]), the ΔPaO2 came out at 35 mmHg.

Consider `C=CCNc1nc(NCCC)c2cc([N+](=O)[O-])ccc2n1` [Example 10, 2-Allylamino-6-nitro-4-propylaminoquinazoline], for which the melting point lay within 211 to 212 °C. For the same molecule, in the series on hypoxemic model rats (setting [1]), the ΔPaO2 came to 34 mmHg.

With `C=CCNc1nc(NC(C)C)nc2ccc([N+](=O)[O-])cc12` [Example 18, 4-Allylamino-2-isopropylamino-6-nitroquinazoline], the melting point lay within 150 to 151 °C. This molecule also returned a ΔPaO2 with hypoxemic model rats (setting [1]) of 30 mmHg.

With `C=CCNc1nc(NC)c2cc([N+](=O)[O-])ccc2n1` [Example 21, 2-Allylamino-4-methylamino-6-nitroquinazoline], the melting point lay in the range of 211 to 212 °C. The molecule further registered a ΔPaO2 with hypoxemic model rats (setting [1]) of 26 mmHg.

`C=CCNc1nc(NCC)c2cc([N+](=O)[O-])ccc2n1` [Example 22, 2-Allylamino-4-ethylamino-6-nitroquinazoline] returned a melting point of 215 to 216 °C. Besides, the ΔPaO2 with hypoxemic model rats (setting [1]) worked out at 27 mmHg.

On to `C=CCNc1nc(NCCOCCC)c2cc([N+](=O)[O-])ccc2n1` [Example 39, 2-Allylamino-6-nitro-4-(2-propoxyethylamino)quinazoline], for which the melting point lay in the range of 156 to 157 °C. For the same molecule, the ΔPaO2 with hypoxemic model rats (setting [1]) worked out at 30 mmHg.

`CCCCNc1nc(NCC=C(C)C)c2cc([N+](=O)[O-])ccc2n1` [Example 60, 2-Butylamino-4-(3-methyl-2-butenylamino)-6-nitroquinazoline] registered a melting point of 171 to 172 °C. Also, in the series with hypoxemic model rats (setting [1]), the ΔPaO2 stood at 27 mmHg.

Molecule `C=CCNc1nc(NCC=C)c2scc(C)c2n1` [Example 66, 2,4-Diallylamino-7-methylthieno[3,2-d]pyrimidine] yielded a melting point of 77 to 80 °C. This molecule came in with a ΔPaO2 in the series on hypoxemic model rats (setting [2]) of 26 mmHg.

The molecule `C=CCNc1nc(NC(C)(C)C)c2scc(C)c2n1` [Example 68, 2-Allylamino-4-t-butylamino-7-methylthieno[3,2-d] pyrimidine] yielded a melting point of 89 to 90 °C. Moreover, in the series on hypoxemic model rats (setting [2]), the ΔPaO2 is given as 31 mmHg.

`C=CCNc1nc(NCC)c2scc(C)c2n1` [Example 76, 2-Allylamino-4-ethylamino-7-methylthieno[3,2-d]pyrimidine] yielded a melting point of 96 to 97 °C. Besides, the ΔPaO2 in the series with hypoxemic model rats (setting [2]) is listed as 33 mmHg.

As to `C=CCNc1nc(NC23CC4CC(CC(C4)C2)C3)c2scc(C)c2n1` [Example 79, 4-(1-Adamantylamino)-2-allylamino-7-methylthieno[3,2-d] pyrimidine], the melting point fell in the range of 107 to 109 °C. The molecule also had a ΔPaO2 in the series with hypoxemic model rats (setting [2]) of 36 mmHg.

Consider `C=CCNc1nc(NCCCCCCCCC)c2scc(C)c2n1` [Example 80, 2-Allylamino-4-nonylamino-7-methylthieno[3,2-d]pyrimidine], for which the melting point lay in the range of 65 to 66 °C. For the same molecule, the ΔPaO2 in the series on hypoxemic model rats (setting [2]) was 28 mmHg.

Regarding `C=CCNc1nc(NCCCC)c2scc(C)c2n1` [Example 81, 2-Allylamino-4-butylamino-7-methylthieno[3,2-d]pyrimidine], the melting point lay within 68 to 70 °C. This molecule also yielded a ΔPaO2 in the series with hypoxemic model rats (setting [2]) of 29 mmHg.

As to `C=CCNc1nc(NC(C)CC)c2scc(C)c2n1` (centres unmarked) [Example 84, 2-Allylamino-7-methyl-4-(1-methylpropylamino)thieno[3,2-d] pyrimidine], the melting point fell in the range of 91 to 92 °C. In addition, the ΔPaO2 in the series with hypoxemic model rats (setting [2]) is reported as 27 mmHg.

`C=CCNc1nc(NCC=C)c2scc(CC)c2n1` [Example 103, 2,4-Diallylamino-7-ethylthieno[3,2-d]pyrimidine] had a melting point of 55 °C. The molecule also gave a ΔPaO2 in the series with hypoxemic model rats (setting [2]) of 30 mmHg.

The values above are taken from patent publication US20010006969A1, “PYRIMIDINE NUCLEUS-CONTAINING COMPOUND AND A MEDICAMENT CONTAINING THE SAME FOR A BLOOD OXYGEN PARTIAL PRESSURE AMELIORATION, AND A METHOD FOR PREPARING THE SAME” (priority 1997, published 2001).
